Assay results reported in US7696190B2, “16Alpha-methyl or ethyl substituted estrogens” (N.V. Organon, priority 2000, dated 2010).

Test system: human estrogen receptor α (hERα) or β receptor (hERβ)
Assay: in vitro transactivation bioassay (luciferase reporter) in recombinant CHO cells, estrogenic (agonist) activity compared with estradiol
Assay type: cell-based
Settings: percentage agonist activity for ER α divided by percentage agonist activity for ER β; CHO cells co-transfected with hERα or hERβ, rat oxytocin promoter and luciferase reporter
Experimental: Compounds are tested for their estrogen receptor activity in a binding assay and in a transactivation assay. The estrogenic and antiestrogenic activity of compounds is determined in an in vitro bioassay with recombinant Chinese hamster ovary (CHO) cells stably co-transfected with the human estrogen receptor α (hERα) or β receptor (hERβ), the rat oxytocin promoter (RO) and the luciferase reporter gene (LUC). The estrogenic activity (potency ratio) of a test compound to stimulate the transactivation of the enzyme luciferase mediated via the estrogen receptors hERα or hERβ is compared with the standard estrogen estradiol. The antiestrogenic activity (potency ratio) of a test compound to inhibit the transactivation of the enzyme luciferase mediated via the estrogen receptors hERα or hERβ by the estrogen estradiol is compared with the standard ICI 164.384 (=(7α,17β)-N-butyl-3,17-dihydroxy-N-methylestra-1,3,5(10)-triene-7-undecanamide). A quantitative parameter for agonist selectivity is obtained by dividing the percentage agonist activity for ER α by the percentage agonist activity for ER β. Compound 11a has agonist selectivity for estrogen receptor α over estrogen receptor β of more than 86 times. Compound 26 has an agonist selectivity for ER α over ER β of 59 times. Compound 27 has agonist selectivity of 88.3 times.

In the case of C#CC1(O)C(C)CC2C3CCC4=C(CCC(O)C4)C3C(CC=C)CC21C (stereo not drawn) [Compound 27, (3α,11β,16α,17β)-16-methyl-11-(2-propenyl)-19-norpregn-5(10)-en-20-yne-3,17-diol], the “agonist selectivity for estrogen receptor α over estrogen receptor β” value is reported as 88.3 times.
